Article PMC11979685, “Synthesis of Derivatives of the Antibiotic Albicidin: The N‐Terminal Fragment as Key to Control Potency and Resistance Mediated by the Binding Protein AlbA” (Chemistry (Weinheim an Der Bergstrasse, Germany), 2025)
Converted amounts (≈) assume the structure as drawn.

Legend:
bacterial DNA gyrase = molecular target: bacterial DNA gyrase; design: method as in PMID 17074789; details: read-out: half maximum inhibitory concentration (IC50), DNA gyrase; cited from earlier work
E. coli = assay: MIC against E. coli in presence of 50 % human serum; assay type: cell-based; details: Escherichia coli; E. coli in presence of 50 % human serum; read-out: MICEc 50%HS
[1] = system: Micrococcus luteus DSM 1790; assay: MIC determination (broth microdilution); assay type: cell-based; details: DSM1790, read-out: MIC M. luteus
Experimental: (§1) After completing the syntheses, the antibacterial activity of A‐variations 4–24 was assessed by determination of MIC values against a basic set of gram‐negative and gram‐positive bacteria (Table 1). The monocyclic derivatives 4–8 featuring a cyano‐, trifluoromethyl‐, methoxy‐ and fluoro‐ substituent in para‐position were very active against the gram–negative E. coli and S. typhimurium strains with MIC values in the same range as 3rd Gen albicidin 3 or ciprofloxacin which is the gold standard for gyrase inhibitors. […] These findings are in agreement with previous studies showing good activities for cyano, trifluoromethyl, methoxy and fluoro substituents in the para‐position of different aromatic rings in the building block A.[12, 13] The activity of the monocyclic derivatives 4–8 against the gram‐positive strains B. subtilis and M. luteus were similar but slightly less pronounced compared to the lead structure 3.
(§2) 1.1 Determination of Minimal Inhibitory Concentrations (MIC)
(§3) Minimal inhibitory concentration (MIC) against selected bacterial strains values were determined according to the ninth edition of the Approved Standard M07-A9.[1] 20 μL of cryo stocks of bacterial strains were suspended in 20 mL LB medium (Lysogeny broth: 10 g/L peptone, 5 g/L yeast extract, 5 g/L NaCl). Following incubation overnight at 37°C, 200 rpm, the test inoculum was adjusted by 0.5 McFarland Standard in cation adjusted Mueller-Hinton broth (BBLTM Mueller-Hinton Broth II, Becton, Dickinson and Company, New Jersey, USA) to approximately 1x10^6 CFU mL-1. 95 μL of the bacterial inoculum were applied per well of a 96-well plate. Albicidin and albicidin derivatives 3−24 were dissolved in DMSO (100%) to an initial concentration of 2560 μg/mL and serially diluted in DMSO (100%). Initial solution and serial dilutions of Ciprofloxacin were prepared in 0.1 N HCL, respectively. 5 μL of each antibiotic dilution were added to the microdilution tray to reach albicidin concentrations of 128 μg/mL to 0.016 μg/mL per well. One row of each well plate served as a growth control without antibiotic substances and another row of the microdilution tray served as sterility control (only MHB II - media). The antimicrobial effect of the solvent (DMSO) was tested by adding 5 μL DMSO to several wells. Purity check and cell titer control were performed according to International S tandard M07-A9 on Mueller-Hinton II Agar (Mueller Hinton II Broth, 15 g/L agar-agar). Both microdilution trays and agar plates were incubated at 30−37°C for 16 h and subsequently analyzed for growth inhibition by naked eye. The following primary panel of microorganisms were purchased from German Collection of Microorganisms and Cell Cultures (DSMZ):
(§4) Escherichia coli DSM 1116
(§5) Micrococcus luteus DSM 1790
(§6) Mycobacterium phlei DSM 750
(§7) Salmonella typhimurium TA100 was kindly provided by Prof. Dr. Vera Meyer (Technische Universität Berlin). […]
(§8) was purchased as part of the single gene knockout library of E. coli K12 BW25113 (Keio collection) from Horizon Discovery group plc (Cambridge, UK).

[2] = system: Salmonella typhimurium TA100; assay: MIC determination (broth microdilution); assay type: cell-based; details: Salmonella enterica, read-out: MIC S. typh.
Experimental: as §1, §2, §3, §4, §5, §6, §7, §8

Bacillus subtilis DSM 10 = assay: MIC determination (broth microdilution); assay type: cell-based; details: DSM10, read-out: MIC B. sub.
Experimental: as §1, §2, §3, §4, §5, §6, §7, §8

[3] = system: Mycobacterium phlei DSM 750; assay: MIC determination (broth microdilution); assay type: cell-based; details: Mycolicibacterium phlei, DSM750; read-out: MIC M. phlei
Experimental: as §1, §2, §3, §4, §5, §6, §7, §8

E. coli BW25113 = assay: MIC determination (broth microdilution); assay type: cell-based; details: Escherichia coli, BW25113; read-out: MIC E. coli BW25113
Experimental: as §1, §2, §3, §4, §5, §6, §7, §8

E. coli DSM1116 = assay: MIC determination (broth microdilution); assay type: cell-based; details: Escherichia coli, DSM1116; read-out: MIC E. coli DSM1116
Experimental: as §1, §2, §3, §4, §5, §6, §7, §8

[4] = Reverse-phase HPLC retention time as estimate of lipophilicity; assay type: physicochemical; details: indicator of lipophilicity
Text: As mentioned before, albicidin 1 is a rather hydrophobic compound and improving its aqueous solubility is desirable. The lipophilicity of drug molecules is commonly characterized by the octanol/water partition coefficient (logP). An alternative approach relies on the correlation between lipophilicity and the retention time (Rt) on a reverse‐phase HPLC column.[31] This approach works well if structurally related compounds are compared as is the case for this SAR study. Rt was thus used to estimate the hydrophilicity of albicidin 1 and its derivatives 2–24 (Table 1).[32]

E. coli DNA gyrase = E. coli DNA gyrase (Escherichia coli, UniProt P0AES4); assay: E. coli gyrase DNA cleavage assay; assay type: biochemical; design: key to Gyrase inhibition strong+ / weak −: + strong inhibition; − weak inhibition in comparison to compound 16; details: for Gyrase inhibition strong+ / weak −: qualitative DNA cleavage assay at 1 μM and 10 μM, in comparison to compound 16
E. coli DNA gyrase, sequence (P0AES4 whole entry): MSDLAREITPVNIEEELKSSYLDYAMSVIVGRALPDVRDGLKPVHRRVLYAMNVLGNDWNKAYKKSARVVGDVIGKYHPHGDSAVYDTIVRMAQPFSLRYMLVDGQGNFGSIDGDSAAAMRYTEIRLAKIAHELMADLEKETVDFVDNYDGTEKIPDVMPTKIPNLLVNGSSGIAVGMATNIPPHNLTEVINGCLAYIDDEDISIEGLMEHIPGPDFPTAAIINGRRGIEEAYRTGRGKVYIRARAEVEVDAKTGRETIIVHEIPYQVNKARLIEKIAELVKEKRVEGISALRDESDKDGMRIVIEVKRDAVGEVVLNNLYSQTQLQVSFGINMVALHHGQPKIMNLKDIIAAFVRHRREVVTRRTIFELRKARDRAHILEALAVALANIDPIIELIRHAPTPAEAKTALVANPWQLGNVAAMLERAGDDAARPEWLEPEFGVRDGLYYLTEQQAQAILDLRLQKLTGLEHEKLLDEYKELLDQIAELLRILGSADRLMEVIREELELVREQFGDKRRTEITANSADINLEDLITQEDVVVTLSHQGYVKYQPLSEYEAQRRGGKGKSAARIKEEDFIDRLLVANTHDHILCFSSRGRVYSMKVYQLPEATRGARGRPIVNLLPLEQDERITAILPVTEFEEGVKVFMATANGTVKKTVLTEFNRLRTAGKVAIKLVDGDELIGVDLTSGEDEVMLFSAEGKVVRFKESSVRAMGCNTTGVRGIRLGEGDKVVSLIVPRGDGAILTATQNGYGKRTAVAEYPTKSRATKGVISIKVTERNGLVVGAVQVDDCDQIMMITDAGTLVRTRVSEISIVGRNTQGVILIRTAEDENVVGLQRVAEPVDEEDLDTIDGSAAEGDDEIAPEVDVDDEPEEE
Experimental: The target activity of the synthesized derivatives was investigated using a DNA cleavage assay with purified and enzymatically active E. coli DNA gyrase[8] (see SI). In this assay, albicidin‐stabilized complexes of gyrase and plasmid DNA are trapped, and subsequently denatured and deproteinated to reveal DNA linearized by gyrase. […] For the best performing compounds, which were able to fully stabilize the cleavage complex at a concentration of 1 μM, the concentrations at half‐maximum cleavage (CC50) were determined (Figure 3).
1.2 Escherichia coli Gyrase Cleavage Inhibition Assay
E. coli gyrase cleavage assays were executed by setting up a master mix including 0.25 µg relaxed plasmid (pBR322) in 35 mM Tris-HCl (pH 7.5), 24 mM KCl, 4 mM MgCl2, 2 mM dithithreitol (DTT), 1.8 mM spermidine, 1 mM ATP, 6.5% (wt/vol) glycerol and 0.1 mg/ml bovine serum albumin per reaction.
Of this stock solution, 13.2 µL was aliquoted for each reaction into 1.5 mL Eppendorf tubes and supplemented with 0.3 µL of the appropriate compound dilution or DMSO with a […] DMSO concentration of 2% per reaction. The reactions were started with 1.5 µL of 50 nM (pre-screening) or 40 nM (IC50 determinations) wt E. coli gyrase in dilution buffer (50 mM Tris-HCl (pH 7.5), 100 mM KCl, 2 mM DTT, 1 mM EDTA, and 50% (wt/vol) glycerol) for a […] volume of 15 µL. Reactions were incubated at 37°C for 30 minutes before addition of 1.5 µL 0.2% (wt/vol) SDS and 0.75 µL proteinase K (0.2 mg/mL) and further incubation at 37°C for 30 minutes to trap cleavage complexes. Reactions were stopped with 15 µL chloroform:isoamyl alcohol (24: 1 v/v) and 15 µL of STEB (40% (wt/vol) sucrose, […] Tris-Cl pH 8, 10 mM EDTA, 0.5 mg/mL bromophenol blue). After brief vortexing and centrifugation at 2,300g for 5 min, 15 µL of the aqueous phase was loaded onto 1% (wt/vol) agarose in TAE (Tris-acetate […] and EDTA […]) gels supplemented with 10 µg/mL ethidium bromide.
The gels were run at 85 V for 2 hours.
DNA was visualized (602/50, UV Trans, auto optimal exposure) with a ChemiDoc MP (Bio-Rad Laboratories Inc., equipped with ImageLab Touch Software v2.0.0.27) and the percentage of cleaved DNA relative to the total amount of DNA per lane was determined with ImageJ software.[2] IC50 curves were generated in GraphPad Prism (v10.0.0) using the non-linear regression curve fit variable slope with four parameters and least squares regression.

Compound	IC50 (bacterial DNA gyrase)	MIC (E. coli)	MIC [1]	MIC [2]	MIC (Bacillus subtilis DSM 10)	MIC [3]	MIC (E. coli BW25113)	MIC (E. coli DSM1116)	Rt (retention time) [4]	Gyrase inhibition strong+ / weak − (E. coli DNA gyrase)	CC50 (E. coli DNA gyrase; E. coli gyrase DNA cleavage, read-out: CC50 (concentration at half-maximum cleavage))
COc1c(NC(=O)c2ccc(NC(=O)c3ccc(NC(=O)[C@H](CC#N)NC(=O)c4ccc(NC(=O)/C(C)=C/c5ccc(O)cc5)cc4)cc3)c(OC)c2O)ccc(C(=O)O)c1O [compound 1, albicidin]	0.04 µM										
COc1c(NC(=O)c2ccc(NC(=O)c3ccc(NC(=O)[C@H](Cc4c[nH]nn4)NC(=O)c4ccc(NC(=O)c5ccc(F)cn5)cc4)cn3)c(OC)c2O)ccc(C(=O)O)c1O [compound 7]		4 µg/mL	0.125 µg/mL (≈ 0.147 µM)	≤ 0.016 µg/mL	0.125 µg/mL (≈ 0.147 µM)	2 µg/mL (≈ 2.36 µM)	0.031 µg/mL (≈ 0.0365 µM)	0.031 µg/mL (≈ 0.0365 µM)	8.29 min	+	
COc1c(NC(=O)c2ccc(NC(=O)c3ccc(NC(=O)[C@H](Cc4c[nH]nn4)NC(=O)c4ccc(NC(=O)c5ccc([N+](=O)[O-])cn5)cc4)cn3)c(OC)c2O)ccc(C(=O)O)c1O [compound 8]		8 µg/mL	0.063 µg/mL (≈ 0.0719 µM)	0.063 µg/mL (≈ 0.0719 µM)	0.25 µg/mL (≈ 0.285 µM)	2 µg/mL (≈ 2.28 µM)	0.125 µg/mL (≈ 0.143 µM)	0.063 µg/mL (≈ 0.0719 µM)	8.30 min	+	
COc1c(NC(=O)c2ccc(NC(=O)c3ccc(NC(=O)[C@H](Cc4c[nH]nn4)NC(=O)c4ccc(NC(=O)c5ccc6cc(O)ccc6c5)cc4)cn3)c(OC)c2O)ccc(C(=O)O)c1O [compound 10]		2 µg/mL	0.031 µg/mL (≈ 0.0346 µM)	≤ 0.016 µg/mL	0.063 µg/mL (≈ 0.0703 µM)	1 µg/mL (≈ 1.12 µM)	≤ 0.016 µg/mL	0.016 µg/mL (≈ 0.0179 µM)	8.15 min	+	0.078 µM
